Test results published in the supplement of paper PMC4862054.

Legend:
Settings in all cases: incubation time: 72 h
BT-474 [1] = assay: normalised response (% of control), CellTox Green; higher = less cell death (100 = DMSO, 0 = benzethonium chloride kill control)
Procedure, shortened: (§1)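 Two readouts were taken after 72 h: CellTox Green fluorescence (485/520 nm) first, then CellTiter-Glo luminescence after 10 min at room temperature. Breast cancer cell lines had been seeded as 20 µl suspension into 384-well plates holding compound at 5 concentrations in 10-fold steps across a compound-specific 10,000-fold range. Each value is a normalised signal at a single concentration, with plates scaled to 0.1 % DMSO (100) and a positive kill control (0).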

BT-549 [2] = assay: as above
Procedure, shortened: as §1

CAL-120 [3] = assay: as above
Procedure, shortened: as §1

CAL-51 [4] = assay: as above
Procedure, shortened: as §1

CAL-85-1 [5] = assay: as above
Procedure, shortened: as §1

DU-4475 [6] = assay: as above
Procedure, shortened: as §1

HCC1143 [7] = assay: as above
Procedure, shortened: as §1

HCC1599 [8] = assay: as above
Procedure, shortened: as §1

HCC1937 [9] = assay: as above
Procedure, shortened: as §1

HDQ-P1 [10] = assay: as above
Procedure, shortened: as §1

Hs578T [11] = assay: as above
Procedure, shortened: as §1

MCF-10A [12] = assay: as above
Procedure, shortened: as §1

MDA-MB-231 [13] = assay: as above
Procedure, shortened: as §1

MDA-MB-436 [14] = assay: as above
Procedure, shortened: as §1

MDA-MB-453 [15] = assay: as above
Procedure, shortened: as §1

MDA-MB-468 [16] = assay: as above
Procedure, shortened: as §1

MFM-223 [17] = assay: as above
Procedure, shortened: as §1

BT-474 [18] = assay: normalised response (% of control), CellTiter-Glo; higher = more viable cells (100 = DMSO, 0 = benzethonium chloride kill control)
Description: (§2)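 DSRT, 72 h incubation, CellTox Green / CellTiter-Glo readout. Signal is normalised to DMSO and benzethonium chloride controls. Value is the normalised response at dose 3.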

BT-549 [19] = assay: as above
Description: as §2

CAL-120 [20] = assay: as above
Description: as §2

CAL-148 [21] = assay: as above
Description: as §2

CAL-51 [22] = assay: as above
Description: as §2

CAL-85-1 [23] = assay: as above
Description: as §2

DU-4475 [24] = assay: as above
Description: as §2

HCC1143 [25] = assay: as above
Description: as §2

HCC1599 [26] = assay: as above
Description: as §2

HCC1937 [27] = assay: as above
Description: as §2

HDQ-P1 [28] = assay: as above
Description: as §2

Hs578T [29] = assay: as above
Description: as §2

MCF-10A [30] = assay: as above
Description: as §2

MDA-MB-231 [31] = assay: as above
Description: as §2

MDA-MB-436 [32] = assay: as above
Description: as §2

MDA-MB-453 [33] = assay: as above
Description: as §2

MDA-MB-468 [34] = assay: as above
Description: as §2

MFM-223 [35] = assay: as above
Description: as §2

SK-BR-3 = assay: as above
Description: as §2

CAL-148 [36] = assay: normalised response (% of control), CellTox Green; higher = less cell death (100 = DMSO, 0 = benzethonium chloride kill control)
Procedure, shortened: as §1

Row | SMILES | normalised response (BT-474 [1]) [%] | normalised response (BT-549 [2]) [%] | normalised response (CAL-120 [3]) [%] | normalised response (CAL-51 [4]) [%] | normalised response (CAL-85-1 [5]) [%] | normalised response (DU-4475 [6]) [%] | normalised response (HCC1143 [7]) [%] | normalised response (HCC1599 [8]) [%] | normalised response (HCC1937 [9]) [%] | normalised response (HDQ-P1 [10]) [%] | normalised response (Hs578T [11]) [%] | normalised response (MCF-10A [12]) [%] | normalised response (MDA-MB-231 [13]) [%] | normalised response (MDA-MB-436 [14]) [%] | normalised response (MDA-MB-453 [15]) [%] | normalised response (MDA-MB-468 [16]) [%] | normalised response (MFM-223 [17]) [%] | normalised response (BT-474 [18]) [%] | normalised response (BT-549 [19]) [%] | normalised response (CAL-120 [20]) [%] | normalised response (CAL-148 [21]) [%] | normalised response (CAL-51 [22]) [%] | normalised response (CAL-85-1 [23]) [%] | normalised response (DU-4475 [24]) [%] | normalised response (HCC1143 [25]) [%] | normalised response (HCC1599 [26]) [%] | normalised response (HCC1937 [27]) [%] | normalised response (HDQ-P1 [28]) [%] | normalised response (Hs578T [29]) [%] | normalised response (MCF-10A [30]) [%] | normalised response (MDA-MB-231 [31]) [%] | normalised response (MDA-MB-436 [32]) [%] | normalised response (MDA-MB-453 [33]) [%] | normalised response (MDA-MB-468 [34]) [%] | normalised response (MFM-223 [35]) [%] | normalised response (SK-BR-3) [%] | normalised response (CAL-148 [36]) [%]
1 | CC[C@@H]1C(=O)N(C)c2cnc(Nc3ccc(C(=O)NC4CCN(C)CC4)cc3OC)nc2N1C1CCCC1 [BI 2536] (10 nM) | 78.1 | -328 | 88.2 | 51.3 | 65.3 | 97.5 | 97.8 | 101 | 116 | 55.5 | 89.4 | 64.3 | 10.1 | 51.6 | 101 | 56.6 | 73 | 74.3 | 37 | 70.5 | 55.6 | 67.2 | 43.9 | 85.2 | 55.7 | 92.6 | 84.8 | 78.4 | 83.9 | 82.4 | 51.4 | 44.2 | 70.5 | 37.3 | 44.3 | 15.6 | –
2 | C=CC(=O)Nc1cc2c(Nc3ccc(F)c(Cl)c3)ncnc2cc1OCCCN1CCOCC1 [Canertinib] (100 nM) | 84.4 | 75.7 | 97.6 | 98.2 | 72.3 | 105 | 94.3 | 114 | 108 | 51.8 | 109 | 106 | 107 | 107 | 102 | 136 | 99.3 | 95.3 | 93.9 | 99.5 | 97.5 | 60.2 | 69.1 | 102 | 95.7 | 85.5 | 84.5 | 70.9 | 97.4 | 43.9 | 103 | 96.6 | 91.9 | 76.6 | 99.1 | 46.4 | 104
3 | O=C(O)C1(C(=O)O)CCC1.[NH2-].[NH2-].[Pt+2] [Carboplatin] (100 nM) | 103 | 78.9 | 104 | 90.7 | 108 | 105 | 89.6 | 100 | 75.2 | 88.8 | 95.5 | 86.2 | 101 | 103 | 97.6 | 61.5 | 96.8 | 102 | 93 | 99.1 | 102 | 93.7 | 98 | 99.5 | 101 | 87.6 | 94.2 | 99 | 99.9 | 107 | 100 | 103 | 94.7 | 93.9 | 99.2 | 105 | 103
4 | COc1cc2c(Oc3ccc4[nH]c(C)cc4c3F)ncnc2cc1OCCCN1CCCC1 [Cediranib] (10 nM) | 96.3 | 104 | 95.1 | 109 | 90.9 | 97.7 | 101 | 113 | 119 | 108 | 111 | 88.3 | 106 | 103 | 107 | 138 | 106 | 103 | 113 | 103 | 108 | 92.7 | 107 | 104 | 102 | 88.5 | 99.5 | 100 | 110 | 97.9 | 105 | 101 | 107 | 104 | 107 | 104 | 105
